Read-outs that look alike come from different tables or passages of the source. Positions of bridges follow the written chain, without caps; N, C: chain ends. Non-standard residues stand in square brackets, D forms with d. Residues, ends and D or L forms follow the SMILES beside them. Pip = O=C(O)[C@@H]1CCCCN1; Sar = CNCC(=O)O
What was measured:
human MC4R [1] = target: T1, human MC4R (Homo sapiens, UniProt P32245); assay: 125NDP-α-MSH competitive binding to membranes of BHK cells expressing human MC4 receptor (filtration assay)
T1 construct: expressed in transfected cells
T1 sequence (P32245 whole entry): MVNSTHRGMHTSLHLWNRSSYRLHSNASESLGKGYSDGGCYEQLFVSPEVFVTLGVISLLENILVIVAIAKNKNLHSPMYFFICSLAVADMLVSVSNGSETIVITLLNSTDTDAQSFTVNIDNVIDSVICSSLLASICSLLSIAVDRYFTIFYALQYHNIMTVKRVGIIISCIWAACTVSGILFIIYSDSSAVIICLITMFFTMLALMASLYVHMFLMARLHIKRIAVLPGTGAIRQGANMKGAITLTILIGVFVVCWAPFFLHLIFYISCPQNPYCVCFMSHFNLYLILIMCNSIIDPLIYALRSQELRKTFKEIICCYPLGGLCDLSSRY
Method in brief: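 Displacement of ^125NDP-α-MSH (apx. […] final) was measured by filtration after 2 h at 25 °C, using diluted membranes of stably transfected BHK cells in pH 7.0 HEPES buffer. Compounds spanned 1 μM to 0.001 nM; binding curves were analysed by non-linear regression.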

human MC4R [2] = target: T1, human MC4R; assay: Functional cAMP assay (CisBio HTRF) in BHK cells expressing human MC4R; format: cell-based; details: for MC1R/MC4R cAMP EC50 ratio: MC1R cAMP EC50 divided by MC4R cAMP EC50
Method in brief: (§1)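 Stably transfected BHK cells expressing human MC1R or MC4R; cAMP quantified by HTRF (cAMP-d2/cryptate) after 30 min compound stimulation at 25 °C in DMEM-based buffer with 1 mM IBMX. Compounds were prepared as 10-fold serial dilutions starting at 2 μM (working solution, 2× final). Readout after 1 h at 25 °C; non-linear regression.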

human MC1R = target: T2, human MC1R (Homo sapiens, UniProt Q01726); assay: Functional cAMP assay (CisBio HTRF) in BHK cells expressing human MC1R; format: cell-based
T2 construct: expressed in transfected cells
T2 sequence (Q01726 whole entry): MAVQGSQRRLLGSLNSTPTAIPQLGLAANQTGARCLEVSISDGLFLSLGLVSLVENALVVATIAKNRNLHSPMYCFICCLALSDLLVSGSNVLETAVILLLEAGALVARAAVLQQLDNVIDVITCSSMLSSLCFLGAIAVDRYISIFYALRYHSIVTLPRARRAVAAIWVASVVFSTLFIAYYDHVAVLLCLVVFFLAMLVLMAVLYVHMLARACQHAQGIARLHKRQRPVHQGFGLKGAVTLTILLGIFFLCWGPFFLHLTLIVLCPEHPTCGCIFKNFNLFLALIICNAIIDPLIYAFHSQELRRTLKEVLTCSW
Method in brief: as §1

[3] = human MC4R, BHK cell membranes, 125NDP-α-MSH radioligand, read-out: MC4R binding Ki
[4] = BHK cells expressing human MC4R, '>' = highest dose used with no response, read-out: MC4R cAMP EC50
[5] = BHK cells expressing human MC1R, '>' = highest dose used with no response, read-out: MC1R cAMP EC50

Ki (human MC4R [1]; [3]) [pM] | EC50 (human MC4R [2]; [4]) [pM] | MC1R/MC4R cAMP EC50 ratio (human MC4R [2]) | EC50 (human MC1R; [5]) [pM] | SMILES | Ki (human MC4R [1]) [pM] | EC50 (human MC4R [2]) [pM] | EC50 (human MC1R) [pM]
80 | 290 | 19 | > 5500 | C[C@@H]1NC(=O)[C@@H]2CSSC[C@H](NC(=O)[C@H](CCCNC(=N)N)NC(=O)[C@H](CCCCN)NC(=O)[C@H](CCCCN)NC(=O)[C@H](CCCCN)NC1=O)C(=O)N(C)CC(=O)N[C@@H](Cc1c[nH]cn1)C(=O)N[C@H](Cc1ccccc1)C(=O)N[C@@H](Cc1c[nH]cn1)C(=O)N[C@@H](Cc1c[nH]c3ccccc13)C(=O)N2 [Chem. 74, c[c[Cys-Sar-His-D-Phe-His-Trp-Cys]- Ala-Lys-Lys-Lys-Arg]] (cyclo(AKKKRC[Sar]H[dF]HWC); disulfide 6-12) | – | – | –
160 | 150 | 58 | 8650 | C[C@@H]1NC(=O)[C@@H]2CSSC[C@H](NC(=O)[C@H](Cc3c[nH]c4ccccc34)NC(=O)[C@H](CCCNC(=N)N)NC(=O)[C@@H](Cc3ccccc3)NC(=O)[C@H](Cc3c[nH]cn3)NC1=O)C(=O)N[C@@H](C)C(=O)N[C@@H](Cc1ccc(O)cc1)C(=O)N[C@@H](Cc1ccccc1)C(=O)N[C@@H](CCCCN)C(=O)N[C@@H](Cc1c[nH]c3ccccc13)C(=O)N2 [Chem. 80, c[c[Cys-Ala-His-D-Phe-Arg-Trp-Cys]- Ala-Tyr-Phe-Lys-Trp]] (cyclo(AH[dF]RWCAYFKWC); disulfide 6-12) | – | – | –
170 | – | >5 | > 10000 | C[C@@H]1NC(=O)[C@@H]2CSSC[C@H](NC(=O)[C@H](Cc3c[nH]c4ccccc34)NC(=O)[C@H](CCCCN)NC(=O)[C@H](CCCCN)NC(=O)[C@H](CCCCN)NC1=O)C(=O)N1CCCC[C@H]1C(=O)N[C@@H](Cc1c[nH]cn1)C(=O)N[C@H](Cc1ccccc1)C(=O)N[C@@H](Cc1c[nH]cn1)C(=O)N[C@@H](Cc1c[nH]c3ccccc13)C(=O)N2 [Chem. 83, c[c[Cys-PIP-His-D-Phe-His-Trp-Cys]- Ala-Lys-Lys-Lys-Trp]] (cyclo(AKKKWC[Pip]H[dF]HWC); disulfide 6-12) | – | – | –

Continued, molecule first:

SMILES | Ki (human MC4R [1]; [3]) [pM] | EC50 (human MC4R [2]; [4]) [pM] | MC1R/MC4R cAMP EC50 ratio (human MC4R [2]) | EC50 (human MC1R; [5]) [pM] | Ki (human MC4R [1]) [pM] | EC50 (human MC4R [2]) [pM] | EC50 (human MC1R) [pM]
C[C@@H]1NC(=O)[C@@H]2CSSC[C@H](NC(=O)[C@H](CCCNC(=N)N)NC(=O)[C@H](CCCCN)NC(=O)[C@H](CCCCN)NC(=O)[C@H](CCCCN)NC1=O)C(=O)N[C@H](C)C(=O)N[C@@H](Cc1c[nH]cn1)C(=O)N[C@H](Cc1ccccc1)C(=O)N[C@@H](CCCNC(=N)N)C(=O)N[C@@H](Cc1c[nH]c3ccccc13)C(=O)N2 [Chem. 85, c[c[Cys-D-Ala-His-D-Phe-Arg-Trp- Cys]-Ala-Lys-Lys-Lys-Arg]] (cyclo(AKKKRC[dA]H[dF]RWC); disulfide 6-12) | 20 | 10 | 22 | 220 | – | – | –
C[C@@H]1NC(=O)[C@H](C)NC(=O)[C@H](C)NC(=O)[C@@H]2CSSC[C@H](NC(=O)[C@H](Cc3c[nH]c4ccccc34)NC(=O)[C@H](C)NC1=O)C(=O)N[C@@H](C)C(=O)N[C@@H](Cc1c[nH]cn1)C(=O)N[C@H](Cc1ccccc1)C(=O)N[C@@H](CCCNC(=N)N)C(=O)N[C@@H](Cc1c[nH]c3ccccc13)C(=O)N2 [Chem. 87, c[c[Cys-Ala-His-D-Phe-Arg-Trp-Cys]- Ala-Ala-Ala-Ala-Trp]] (cyclo(AAAAWCAH[dF]RWC); disulfide 6-12) | – | – | 35 | – | 170 | 40 | 1390
C[C@@H]1NC(=O)[C@H](C)NC(=O)[C@@H]2CSSC[C@H](NC(=O)[C@H](Cc3c[nH]c4ccccc34)NC(=O)[C@H](C)NC(=O)[C@@H](C)NC1=O)C(=O)N[C@@H](C)C(=O)N[C@@H](Cc1c[nH]cn1)C(=O)N[C@H](Cc1ccccc1)C(=O)N[C@@H](CCCNC(=N)N)C(=O)N[C@@H](Cc1c[nH]c3ccccc13)C(=O)N2 [Chem. 88, c[c[Cys-Ala-His-D-Phe-Arg-Trp-Cys]- Ala-Ala-D-Ala-Ala-Trp]] (cyclo(AA[dA]AWCAH[dF]RWC); disulfide 6-12) | – | – | 66 | – | 200 | 20 | 1310
